From patent US3956274A, “New compound 6'-deoxy-'-substituted or unsubstituted amino-lividomycins and the production thereof” (Zaidan Hojin Biseibutsu Kagaku Kenkyu Kai, priority 1973, dated 1976)
≈ marks a conversion by molar mass, not a printed value.

Assays:
[1] = tested on: kanamycin-resistant strains; conditions: in words; cited from earlier work
[2] = tested on: Escherichia coli K-12 ML 1629; test: MIC, standard serial dilution method; format: cell-based; conditions: E. coli K-12 ML 1629, drug-resistant strain of patient-origin, nutrient agar, 37°C, 18 hours
Procedure: (§1) The minimum inhibitory concentrations (mcg/ml) of 6'-amino-6'-deoxylividomycin B, 6'-deoxy-6'-methylaminolividomycin B and 6'-deoxy-6'-(2-hydroxyethylamino) lividomycin B against various microorganisms were determined according to a standard serial dilution method using nutrient agar incubation medium at 37°C, the estimation being effected after 18 hours incubation except for Mycobacterium smegmalis ATCC 607, in which the estimation being effected after 48 hours incubation. The minimum inhibitory concentrations (mcg/ml) of neomycin and lividomycin B were also determined in the same manner they also for comparison.
(§2) In the above table, the mark * denotes the strain is a drug-resistant
(§3) strain of patient-origin.

[3] = tested on: Escherichia coli K-12 LA 290 R 55; test: MIC, standard serial dilution method; format: cell-based
Procedure: as §1, §2, §3

[4] = tested on: Pseudomonas aeruginosa GN 315; test: MIC, standard serial dilution method; format: cell-based; conditions: P. aeruginosa GN 315, drug-resistant strain of patient-origin, nutrient agar, 37°C, 18 hours
Procedure: as §1, §2, §3

[5] = tested on: Escherichia coli K-12 JR 66/W 677; test: MIC, standard serial dilution method; format: cell-based
Procedure: as §1, §2, §3

[6] = tested on: Klebsiella pneumoniae type 22 No. 3038; test: MIC, standard serial dilution method; format: cell-based
Procedure: as §1

Escherichia coli NIHJ = test: MIC, standard serial dilution method; format: cell-based
Procedure: as §1

[7] = tested on: Pseudomonas aeruginosa No.12; test: MIC, standard serial dilution method; format: cell-based; conditions: P. aeruginosa No.12, nutrient agar, 37°C, 18 hours
Procedure: as §1

[8] = tested on: Pseudomonas aeruginosa TI-13-1; test: MIC, standard serial dilution method; format: cell-based; conditions: P. aeruginosa TI-13-1, nutrient agar, 37°C, 18 hours
Procedure: as §1

[9] = tested on: Escherichia coli K-12 ML 1410; test: MIC, standard serial dilution method; format: cell-based
Procedure: as §1

[10] = tested on: Escherichia coli K-12 ML 1410 R 81; test: MIC, standard serial dilution method; format: cell-based
Procedure: as §1

Proteus rettgeri GN 466 = test: MIC, standard serial dilution method; format: cell-based
Procedure: as §1

[11] = tested on: Escherichia coli K-12 LA 290 R 56; test: MIC, standard serial dilution method; format: cell-based
Procedure: as §1

Proteus rettgeri GN 311 = test: MIC, standard serial dilution method; format: cell-based; conditions: 37°C, 18 hours
Procedure: as §1

[12] = tested on: Escherichia coli K-12 J 5 R 11-2; test: MIC, standard serial dilution method; format: cell-based; conditions: E. coli K-12 J 5 R 11-2, nutrient agar, 37°C, 18 hours
Procedure: as §1

[13] = tested on: Escherichia coli K-12 ML 1630; test: MIC, standard serial dilution method; format: cell-based; conditions: E. coli K-12 ML 1630, nutrient agar, 37°C, 18 hours
Procedure: as §1

Salmonella typhosa T-63 = test: MIC, standard serial dilution method; format: cell-based
Procedure: as §1

Sarcina lutea PCI 1001 = test: MIC, standard serial dilution method; format: cell-based; conditions: 37°C, 18 hours
Procedure: as §1

[14] = tested on: Mycobacterium smegmatis ATCC 607; test: MIC, standard serial dilution method; format: cell-based; conditions: 37°C, 48 hours
Procedure: as §1

[15] = tested on: Escherichia coli K-12 W 677; test: MIC, standard serial dilution method; format: cell-based
Procedure: as §1

[16] = tested on: Pseudomonas aeruginosa 99; test: MIC, standard serial dilution method; format: cell-based; conditions: P. aeruginosa 99, nutrient agar, 37°C, 18 hours
Procedure: as §1

Escherichia coli K-12 = test: MIC, standard serial dilution method; format: cell-based; conditions: E. coli K-12, nutrient agar, 37°C, 18 hours
Procedure: as §1

[17] = tested on: Escherichia coli K-12 R-5; test: MIC, standard serial dilution method; format: cell-based; conditions: E. coli K-12 R-5, nutrient agar, 37°C, 18 hours
Procedure: as §1

[18] = tested on: Pseudomonas aeruginosa A 3; test: MIC, standard serial dilution method; format: cell-based
Procedure: as §1

[19] = tested on: Escherichia coli K-12 LA 290 R 64; test: MIC, standard serial dilution method; format: cell-based; conditions: E. coli K-12 LA 290 R 64, nutrient agar, 37°C, 18 hours
Procedure: as §1

[20] = tested on: Klebsiella pneumoniae PCI 602; test: MIC, standard serial dilution method; format: cell-based; conditions: K. pneumoniae PCI 602, nutrient agar, 37°C, 18 hours
Procedure: as §1

[21] = tested on: Bacillus subtilis NRRL B-558; test: MIC, standard serial dilution method; format: cell-based; conditions: B. subtilis NRRL B-558, nutrient agar, 37°C, 18 hours
Procedure: as §1

[22] = tested on: Staphylococcus aureus FDA 209 P; test: MIC, standard serial dilution method; format: cell-based; conditions: S. aureus FDA 209 P, nutrient agar, 37°C, 18 hours
Procedure: as §1

[23] = tested on: strains producing the phosphotransferase; conditions: in words; cited from earlier work
[24] = Escherichia coli, 18 h, read-out: Minimal inhibitory concentration
[25] = Pseudomonas aeruginosa, read-out: Minimal inhibitory concentration

**Q.** Which results are given for `NC[C@@H]1O[C@H](O[C@H]2[C@@H](O)[C@H](O[C@@H]3[C@@H](O)[C@H](N)C[C@H](N)[C@H]3O[C@H]3O[C@H](CO)[C@@H](O)C[C@H]3N)O[C@@H]2CO)[C@H](N)[C@@H](O)[C@@H]1O` [LVB, lividomycin B, reference compound]?
**A.** activity against kanamycin-resistant strains [1]: active against the kanamycin-resistant bacteria; MIC ([2]; Escherichia coli, K12ML1629, read-out: Minimal inhibitory concentration): > 100 µg/mL; MIC [3, 24]: 3.12 µg/mL (≈ 5.2 µM); MIC ([4]; Pseudomonas aeruginosa, GN315, read-out: Minimal inhibitory concentration): 50 µg/mL (≈ 83.4 µM); MIC [5, 24]: 6.25 µg/mL (≈ 10.4 µM); MIC ([6]; Klebsiella pneumoniae, TYPE22NO.3038, 18 h, read-out: Minimal inhibitory concentration): 6.25 µg/mL (≈ 10.4 µM); MIC (Escherichia coli NIHJ; [24]): 3.12 µg/mL (≈ 5.2 µM); MIC [7, 25]: 25 µg/mL (≈ 41.7 µM); MIC ([8]; Pseudomonas aeruginosa, TI131, read-out: Minimal inhibitory concentration): > 100 µg/mL; MIC ([9]; Escherichia coli, K12ML1410, 18 h, read-out: Minimal inhibitory concentration): 6.25 µg/mL (≈ 10.4 µM); MIC [10, 24]: > 100 µg/mL; MIC (Proteus rettgeri GN 466; Providencia rettgeri, GN466, 18 h, read-out: Minimal inhibitory concentration): 3.12 µg/mL (≈ 5.2 µM); MIC [11, 24]: 3.12 µg/mL (≈ 5.2 µM); MIC (Proteus rettgeri GN 311; Providencia rettgeri, GN311, nutrient agar, read-out: Minimal inhibitory concentration): 1.56 µg/mL (≈ 2.6 µM); MIC ([12]; Escherichia coli, K12J5R112, read-out: Minimal inhibitory concentration): > 100 µg/mL; MIC ([13]; Escherichia coli, K12ML1630, read-out: Minimal inhibitory concentration): > 100 µg/mL; MIC (Salmonella typhosa T-63; Salmonella enterica, TYPHOSA, 18 h, read-out: Minimal inhibitory concentration): 0.78 µg/mL (≈ 1.3 µM); MIC (Sarcina lutea PCI 1001; Micrococcus luteus, PCI1001, nutrient agar, read-out: Minimal inhibitory concentration): 1.56 µg/mL (≈ 2.6 µM); MIC ([14]; Mycolicibacterium smegmatis, ATCC607, nutrient agar, read-out: Minimal inhibitory concentration): 0.39 µg/mL (≈ 0.65 µM); MIC ([15]; Escherichia coli, K12W677, 18 h, read-out: Minimal inhibitory concentration): 3.12 µg/mL (≈ 5.2 µM); MIC [16, 25]: 100 µg/mL (≈ 167 µM); MIC (Escherichia coli K-12; Escherichia coli, K12, read-out: Minimal inhibitory concentration): 1.56 µg/mL (≈ 2.6 µM); MIC ([17]; Escherichia coli, K12R5, read-out: Minimal inhibitory concentration): 1.56 µg/mL (≈ 2.6 µM); MIC ([18]; Pseudomonas aeruginosa, A3, 18 h, read-out: Minimal inhibitory concentration): 6.25 µg/mL (≈ 10.4 µM); MIC ([19]; Escherichia coli, read-out: Minimal inhibitory concentration): 3.12 µg/mL (≈ 5.2 µM); MIC ([20]; Klebsiella pneumoniae, PCI602, read-out: Minimal inhibitory concentration): 1.56 µg/mL (≈ 2.6 µM); MIC ([21]; Bacillus subtilis, NRRLB558, read-out: Minimal inhibitory concentration): < 0.2 µg/mL; MIC ([22]; Staphylococcus aureus, FDA209, read-out: Minimal inhibitory concentration): 1.56 µg/mL (≈ 2.6 µM)

**Q.** Which results are given for `NC[C@@H]1O[C@H](O[C@H]2[C@@H](O)[C@H](O[C@@H]3[C@@H](O)[C@H](N)C[C@H](N)[C@H]3O[C@H]3O[C@H](CN)[C@@H](O)[C@H](O)[C@H]3N)O[C@@H]2CO)[C@H](N)[C@@H](O)[C@@H]1O` [NM, neomycin, reference compound]?
**A.** Minimal inhibitory concentration [2]: 100 µg/mL (≈ 163 µM); Minimal inhibitory concentration ([3]; E. coli K-12 LA 290 R 55, drug-resistant strain of patient-origin, nutrient agar, 37°C, 18 hours): 0.78 µg/mL (≈ 1.27 µM); Minimal inhibitory concentration [4]: 100 µg/mL (≈ 163 µM); Minimal inhibitory concentration ([5]; E. coli K-12 JR 66/W 677, drug-resistant strain of patient-origin, nutrient agar, 37°C, 18 hours): > 100 µg/mL; Minimal inhibitory concentration ([6]; K. pneumoniae type 22 No. 3038, nutrient agar, 37°C, 18 hours): > 100 µg/mL; Minimal inhibitory concentration (Escherichia coli NIHJ; E. coli NIHJ, nutrient agar, 37°C, 18 hours): 1.56 µg/mL (≈ 2.54 µM); Minimal inhibitory concentration [7]: 3.12 µg/mL (≈ 5.08 µM); Minimal inhibitory concentration [8]: > 100 µg/mL; Minimal inhibitory concentration ([9]; E. coli K-12 ML 1410, nutrient agar, 37°C, 18 hours): 6.25 µg/mL (≈ 10.2 µM); Minimal inhibitory concentration ([10]; E. coli K-12 ML 1410 R 81, nutrient agar, 37°C, 18 hours): > 100 µg/mL; Minimal inhibitory concentration (Proteus rettgeri GN 466; Proteus rettgeri GN 466, nutrient agar, 37°C, 18 hours): 3.12 µg/mL (≈ 5.08 µM); Minimal inhibitory concentration ([11]; E. coli K-12 LA 290 R 56, nutrient agar, 37°C, 18 hours): 0.78 µg/mL (≈ 1.27 µM); Minimal inhibitory concentration (Proteus rettgeri GN 311; nutrient agar): 50 µg/mL (≈ 81.3 µM); Minimal inhibitory concentration [12]: 50 µg/mL (≈ 81.3 µM); Minimal inhibitory concentration [13]: > 100 µg/mL; Minimal inhibitory concentration (Salmonella typhosa T-63; Salmonella typhosa T-63, nutrient agar, 37°C, 18 hours): 0.78 µg/mL (≈ 1.27 µM); Minimal inhibitory concentration (Sarcina lutea PCI 1001; nutrient agar): 0.78 µg/mL (≈ 1.27 µM); Minimal inhibitory concentration ([14]; nutrient agar): < 0.20 µg/mL; Minimal inhibitory concentration ([15]; E. coli K-12 W 677, nutrient agar, 37°C, 18 hours): 0.78 µg/mL (≈ 1.27 µM); Minimal inhibitory concentration [16]: 50 µg/mL (≈ 81.3 µM); Minimal inhibitory concentration (Escherichia coli K-12): 1.56 µg/mL (≈ 2.54 µM); Minimal inhibitory concentration [17]: 0.78 µg/mL (≈ 1.27 µM); Minimal inhibitory concentration ([18]; P. aeruginosa A 3, nutrient agar, 37°C, 18 hours): 25 µg/mL (≈ 40.7 µM); Minimal inhibitory concentration [19]: 0.39 µg/mL (≈ 0.635 µM); Minimal inhibitory concentration [20]: 0.78 µg/mL (≈ 1.27 µM); Minimal inhibitory concentration [21]: < 0.20 µg/mL; Minimal inhibitory concentration [22]: 0.39 µg/mL (≈ 0.635 µM)

**Q.** Which “inactivation by some strains producing the phosphotransferase” value [23] does the source give for `NC[C@@H]1CC[C@@H](N)[C@@H](O[C@H]2[C@H](O[C@@H]3O[C@H](CO)[C@@H](O)[C@H]3O)[C@@H](O)[C@H](N)C[C@@H]2N)O1` [3', 4'-dideoxyribostamycin] here?
**A.** The value was “can be inactivated by some strains producing the phosphotransferase”.
